Measurements as given in patent US9963482B2, “Phosphatidylinositol-3-kinase inhibitor and pharmaceutical composition” (Tohoku University, priority 2011, dated 2018).
Read-outs that look alike come from different tables or passages of the source.

Key:
[1] = molecular target: T1, human p110α expressed in budding yeast (Homo sapiens, UniProt P42336); assay: Screening of PI3K inhibitor using budding yeast (recovery from cell proliferation disorder caused by p110α); type: cell-based; conditions: AD1-9 transformant expressing p110α, compound 5 μM, 24 hours, average of three tests
T1 construct: expressed in transfected cells; host or cells: Saccharomyces cerevisiae AD1-9 (LEU2-disrupted), galactose-induced
Method: AD1-9 strain can be obtained from Nader Nourizad (Stanford Genome Technology Center Stanford University, CA, USA).
The transformed AD 1-9 strain was cultured at 30° C. in a minimal complete medium SC-U-L containing no uracil and leucine or SGal-U-L in which 2% glucose was replaced with 2% galactose.
By using the aforementioned system, screening of the compound library, which was obtained from the Screening committee of anticancer drugs supported by grant-in-aid for scientific research on priority area “Cancer” from Ministry of Education, Culture, Sports, Science, and Technology, Japan, was performed. Each compound was added to SGal-U-L liquid medium to constitute a concentration of 0.5 μM or 5 μM and the transformant of AD 1-9 was cultured for 24 hours under shaking. Thereafter, A600 was measured. […] Three independent tests were repeatedly performed to calculate the average value of A600.

HCT116 cells [2] = assay: Western blotting for apoptosis, AKT and histone acetylation in HCT116 cells; type: cell-based, human; conditions: HCT116, 24 hours, 5 μM
Method: With regard to Western blotting, HCT116 cells were treated for 24 hours with SAHA or FK-228 at predetermined concentrations, and then the expression of PARP, cleaved PARP, phosphorylated AKT (S473), AKT, acetylated histone H3, and acetylated histone H4 was analyzed.

HCT116 cells [3] = assay: FACS cell cycle analysis in HCT116 cells; type: cell-based, human; conditions: HCT116, 24 hours; SAHA 2.5 μM, LY294002 50 μM, FK228 or FK-A5 at low concentration
Method: The cells were collected, fixed with ethanol, stained with iodopropidium/PBS solution, and analyzed by using “Cytomics FC500 Flow Cytometry System” (trade name, manufactured by Beckman Coulter). The cell cycle fractions were calculated by using “Multicycle software” (trade name, manufactured by Phenomix Flow Systems).

[4] = tested on: AKT pathway in PC3 (prostate cancer) cells; assay: AKT pathway inhibition by Western blotting in PC3 cells; type: cell-based, human; conditions: for expression level of phosphorylated AKT (Ser-473, Thr-308) over time: 5 to 180 minutes
Method: PC3 cells were obtained from Cell Resource Center for Medical Research of Institute of Development, Aging, and Cancer, Tohoku University. The cells were cultured at 37° C. in the presence of 5% CO2 by using RPMI1640 medium containing inactivated fetal bovine serum at the concentration of 10%.
Western blotting was performed as follows. Various kinds of the cells treated with each compound were collected and lysed in a lysis buffer (500 mM Tris-HCl pH 7.5, 100 mM NaCl, 2 mM EDTA, 1 mM sodium orthovanadate, 1% NP-40, and 1% protease inhibitor cocktail, manufactured by SIGMA-ALDRICH). After centrifugation, the supernatants were collected.
The followings were used as primary antibodies.
As a secondary antibody, “Alexa Fluor680IgG” (trade name, manufactured by Invitrogen) was used. By using “Odyssey Infrared Imaging System” (trade name, manufactured by LI-COR), expression of the protein of interest was determined.

PI3K (p110α/p85α) = molecular target: T2, PI3K (p110α/p85α) (Homo sapiens, UniProt P42336); assay: In vitro PI3K inhibitory activity by mobility shift assay (Carna Biosciences); type: biochemical; conditions: for PI3K activity inhibitory rate: compound 20 μM, 50 μM ATP
T2 construct: purchased Carna Biosciences, Inc. (Kobe); contract measurement
Method: The PI3K (p110α/p85α) inhibitory activity was evaluated at Carna Biosciences, Inc. (Kobe) by mobility shift assay which included isolation and quantification of a substrate and the phosphorylated substrate based on the mobility in a capillary (https://www.carnabio.com/japanese/product/search.cgi?mode=profiling). […] After allowing the reaction to occur for 5 hours at room temperature, the mobility shift assay was performed. The test was performed in duplicate.
Inhibition rate was calculated as follows.
The value of product/substrate+product when an agent was added thereto was calculated similarly, and the inhibition rate was calculated based on a difference from the control value.

HDAC1 = HDAC1 (Homo sapiens, UniProt Q13547); conditions: Table 2; cited from earlier work
HDAC6 = molecular target: T3, HDAC6 (Homo sapiens, UniProt Q9UBN7); conditions: Table 2; cited from earlier work
T3 sequence (Q9UBN7 1-1215): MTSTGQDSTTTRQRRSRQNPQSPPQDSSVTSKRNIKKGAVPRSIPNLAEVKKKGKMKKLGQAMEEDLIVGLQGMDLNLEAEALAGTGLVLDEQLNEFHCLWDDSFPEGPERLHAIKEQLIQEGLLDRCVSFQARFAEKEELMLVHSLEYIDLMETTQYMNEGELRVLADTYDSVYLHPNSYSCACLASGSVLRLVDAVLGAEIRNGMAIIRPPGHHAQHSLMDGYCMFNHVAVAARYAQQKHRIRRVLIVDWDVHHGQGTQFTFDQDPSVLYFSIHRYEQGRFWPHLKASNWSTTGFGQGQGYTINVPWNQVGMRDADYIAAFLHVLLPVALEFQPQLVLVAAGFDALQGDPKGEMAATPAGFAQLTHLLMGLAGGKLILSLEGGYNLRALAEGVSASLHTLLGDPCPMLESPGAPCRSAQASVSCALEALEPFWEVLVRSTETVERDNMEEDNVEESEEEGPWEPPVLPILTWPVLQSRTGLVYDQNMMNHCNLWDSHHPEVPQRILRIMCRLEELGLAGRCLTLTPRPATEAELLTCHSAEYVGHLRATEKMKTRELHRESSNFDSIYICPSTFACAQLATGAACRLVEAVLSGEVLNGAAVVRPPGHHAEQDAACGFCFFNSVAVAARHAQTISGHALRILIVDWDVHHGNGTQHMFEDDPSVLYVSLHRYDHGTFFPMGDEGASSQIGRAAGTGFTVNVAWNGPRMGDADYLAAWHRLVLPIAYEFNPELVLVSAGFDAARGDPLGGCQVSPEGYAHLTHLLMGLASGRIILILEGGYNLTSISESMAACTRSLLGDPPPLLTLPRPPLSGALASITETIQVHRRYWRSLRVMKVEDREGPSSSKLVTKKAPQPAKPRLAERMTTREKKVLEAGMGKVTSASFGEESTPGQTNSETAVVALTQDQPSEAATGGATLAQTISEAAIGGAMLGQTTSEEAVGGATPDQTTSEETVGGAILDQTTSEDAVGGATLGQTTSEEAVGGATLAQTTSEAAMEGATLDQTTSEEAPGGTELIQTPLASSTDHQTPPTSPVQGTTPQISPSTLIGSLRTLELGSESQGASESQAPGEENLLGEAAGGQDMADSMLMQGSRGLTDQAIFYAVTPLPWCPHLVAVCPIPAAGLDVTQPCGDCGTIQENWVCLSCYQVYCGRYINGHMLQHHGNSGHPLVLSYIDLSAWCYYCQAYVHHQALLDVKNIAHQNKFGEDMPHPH

[5] = Table 3, PI3K (p110α/p85α), read-out: PI3K IC50

Sequence of HDAC1 (Q13547 whole entry, species assumed): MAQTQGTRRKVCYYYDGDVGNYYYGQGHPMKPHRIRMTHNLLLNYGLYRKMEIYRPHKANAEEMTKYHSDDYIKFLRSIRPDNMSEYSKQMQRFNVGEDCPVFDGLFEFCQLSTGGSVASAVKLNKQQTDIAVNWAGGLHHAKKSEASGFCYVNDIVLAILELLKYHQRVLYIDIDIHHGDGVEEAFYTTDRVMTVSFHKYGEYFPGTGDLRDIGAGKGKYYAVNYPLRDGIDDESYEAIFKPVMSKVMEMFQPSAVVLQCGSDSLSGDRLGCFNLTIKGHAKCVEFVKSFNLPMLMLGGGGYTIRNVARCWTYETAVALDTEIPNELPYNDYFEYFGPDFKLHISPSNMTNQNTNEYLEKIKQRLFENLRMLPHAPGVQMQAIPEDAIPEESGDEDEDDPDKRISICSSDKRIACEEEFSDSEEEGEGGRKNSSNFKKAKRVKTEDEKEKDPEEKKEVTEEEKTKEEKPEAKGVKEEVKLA
T1 sequence (P42336 whole entry): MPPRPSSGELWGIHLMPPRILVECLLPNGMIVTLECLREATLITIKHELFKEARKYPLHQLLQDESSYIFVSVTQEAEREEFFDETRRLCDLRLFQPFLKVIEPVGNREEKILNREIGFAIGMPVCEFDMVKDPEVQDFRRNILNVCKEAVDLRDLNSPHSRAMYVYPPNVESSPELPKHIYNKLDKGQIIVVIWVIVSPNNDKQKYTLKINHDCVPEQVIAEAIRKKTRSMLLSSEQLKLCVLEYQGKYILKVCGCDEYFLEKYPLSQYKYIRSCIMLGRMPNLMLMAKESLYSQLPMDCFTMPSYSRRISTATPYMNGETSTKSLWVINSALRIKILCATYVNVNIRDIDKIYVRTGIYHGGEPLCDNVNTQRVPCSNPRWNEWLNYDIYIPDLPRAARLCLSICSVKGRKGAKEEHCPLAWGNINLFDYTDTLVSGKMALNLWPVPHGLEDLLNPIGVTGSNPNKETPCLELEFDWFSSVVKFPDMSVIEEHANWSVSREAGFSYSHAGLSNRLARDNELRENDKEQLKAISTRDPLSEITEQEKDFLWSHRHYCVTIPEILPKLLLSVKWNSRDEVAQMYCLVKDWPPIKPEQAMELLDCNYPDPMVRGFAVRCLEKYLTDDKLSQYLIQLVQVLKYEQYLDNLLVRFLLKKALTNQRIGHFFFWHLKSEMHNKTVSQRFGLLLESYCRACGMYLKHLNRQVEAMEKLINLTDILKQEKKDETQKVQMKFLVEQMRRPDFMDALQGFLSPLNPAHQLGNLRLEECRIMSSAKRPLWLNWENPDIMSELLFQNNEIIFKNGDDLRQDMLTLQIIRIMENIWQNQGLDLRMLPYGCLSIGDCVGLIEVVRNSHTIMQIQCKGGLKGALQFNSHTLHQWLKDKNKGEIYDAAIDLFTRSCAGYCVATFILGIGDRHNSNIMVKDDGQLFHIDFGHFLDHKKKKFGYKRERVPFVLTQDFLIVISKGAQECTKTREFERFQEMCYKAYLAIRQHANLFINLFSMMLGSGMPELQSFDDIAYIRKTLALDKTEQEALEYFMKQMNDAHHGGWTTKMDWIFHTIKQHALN
T2 sequence (P42336 whole entry): as above
T2 sequence (P27986 whole entry partner): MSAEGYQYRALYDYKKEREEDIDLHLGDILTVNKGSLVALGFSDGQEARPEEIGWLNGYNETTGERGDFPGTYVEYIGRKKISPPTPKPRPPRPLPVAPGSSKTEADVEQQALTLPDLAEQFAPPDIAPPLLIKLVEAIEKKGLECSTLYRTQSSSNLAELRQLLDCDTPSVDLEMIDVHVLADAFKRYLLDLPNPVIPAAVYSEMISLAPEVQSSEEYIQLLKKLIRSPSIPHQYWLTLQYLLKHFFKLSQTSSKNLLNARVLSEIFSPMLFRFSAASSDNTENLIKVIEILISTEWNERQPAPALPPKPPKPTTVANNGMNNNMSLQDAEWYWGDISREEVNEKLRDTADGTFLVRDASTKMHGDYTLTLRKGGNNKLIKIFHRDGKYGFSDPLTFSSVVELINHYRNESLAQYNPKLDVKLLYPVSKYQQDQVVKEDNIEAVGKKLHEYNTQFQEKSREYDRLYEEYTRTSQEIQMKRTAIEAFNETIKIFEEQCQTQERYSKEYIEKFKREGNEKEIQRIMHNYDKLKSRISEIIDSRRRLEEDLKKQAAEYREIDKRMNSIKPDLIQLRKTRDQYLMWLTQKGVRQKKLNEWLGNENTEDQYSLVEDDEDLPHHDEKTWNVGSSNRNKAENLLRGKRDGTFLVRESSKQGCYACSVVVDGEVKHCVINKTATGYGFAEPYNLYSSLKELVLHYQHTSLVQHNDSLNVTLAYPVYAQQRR

C/C=C1\NC(=O)[C@H]2CSSCC/C=C/[C@H](CC(=O)N[C@H](C(C)C)C(=O)N2)OC(=O)[C@H](C(C)C)NC1=O [FK228, romidepsin]
A600 [1]: 0.385
Cleaved PARP (HCT116 cells [2]): increased most
expression of acetylated histone (HCT116 cells [2]): enhanced the expression of acetylated histone
phosphorylated AKT (HCT116 cells [2]): inhibited the phosphorylated AKT
cell cycle arrest (HCT116 cells [3]): induced cell cycle arrest, predominantly at G2/M phase
expression level of phosphorylated AKT (Ser-473, Thr-308) over time ([4]; 10 μM): lowered the expression level of phosphorylated AKT (Ser-473, Thr-308)
lowering of expression level of phosphorylated AKT (S473) compared to control ([4]; 10 μM, 180 minutes): 66%
lowering of expression level of phosphorylated AKT (T308) compared to control ([4]; 10 μM, 180 minutes): 86%
phosphorylated ERK1/2 ([4]; 180 minutes): slightly inhibited
phosphorylated MEK1/2 ([4]; 180 minutes): not inhibited
expression levels of phosphorylated AKT, GSK-3β, mTOR, p70S6K and 4E-BP1 ([4]; 180 minutes, varying concentration): inhibited in a concentration dependent manner
IC50 (PI3K (p110α/p85α); high ATP concentration (500 μM), read-out: IC50 for PI3K): 125 µM
inhibition at 10 µM (PI3K (p110α/p85α); read-out: inhibition rate in the PI3K inhibition curve): 6.5%
IC50 (PI3K (p110α/p85α); standard ATP concentration (50 μM), read-out: IC50 for PI3K): 57.2 µM

C/C=C1\NC(=O)C2CSSCC/C=C/C(CC(=O)N[C@H](C(C)C)C(=O)N2)OC(=O)CNC1=O (some centres unmarked) [FK-A1]
IC50 (HDAC1): 0.0078 µM
IC50 (HDAC6): 3.2 µM

CC(C)C1NC(=O)CC2/C=C/CCSSCC(NC1=O)C(=O)NCC(=O)NCC(=O)O2 (centres unmarked) [FK-A2]
IC50 (HDAC1): 0.045 µM
IC50 (HDAC6): 4.8 µM

CC(C)C1NC(=O)CC2/C=C/CCSSCC(NC1=O)C(=O)N[C@H](C)C(=O)NCC(=O)O2 (some centres unmarked) [FK-A3]
A600 [1]: 0.380
IC50 (HDAC1): 0.0042 µM
IC50 (HDAC6): 3.2 µM
PI3K activity inhibitory rate (PI3K (p110α/p85α)): higher inhibition rate than FK228

CC(C)[C@H]1NC(=O)CC2/C=C/CCSSCC(NC1=O)C(=O)N[C@@H](C)C(=O)NCC(=O)O2 (some centres unmarked) [FK-A4]
IC50 (HDAC1): 0.34 µM
IC50 (HDAC6): 2.1 µM

CC(C)[C@H]1NC(=O)CC2/C=C/CCSSCC(NC1=O)C(=O)N[C@@H](Cc1ccccc1)C(=O)NCC(=O)O2 (some centres unmarked) [FK-A6]
IC50 (HDAC1): 0.019 µM
IC50 (HDAC6): 2.9 µM
PI3K activity inhibitory rate (PI3K (p110α/p85α)): higher inhibition rate than FK228

CC(C)C[C@H]1NC(=O)C2CSSCC/C=C/C(CC(=O)N[C@H](C(C)C)C(=O)N2)OC(=O)CNC1=O (some centres unmarked) [FK-A7]
IC50 (PI3K (p110α/p85α); [5]): 32.2 µM

CC(C)C[C@@H]1NC(=O)C2CSSCC/C=C/C(CC(=O)N[C@H](C(C)C)C(=O)N2)OC(=O)CNC1=O (some centres unmarked) [FK-A8]
IC50 (PI3K (p110α/p85α); [5]): 44.7 µM

CC(C)[C@H]1NC(=O)CC2/C=C/CCSSCC(NC1=O)C(=O)N[C@H](Cc1ccc(O)cc1)C(=O)NCC(=O)O2 (some centres unmarked) [FK-A9]
IC50 (PI3K (p110α/p85α); [5]): 14.1 µM

COc1ccc(C[C@H]2NC(=O)C3CSSCC/C=C/C(CC(=O)N[C@H](C(C)C)C(=O)N3)OC(=O)CNC2=O)cc1 (some centres unmarked) [FK-A10]
IC50 (PI3K (p110α/p85α); [5]): 26.7 µM

CC(C)[C@H]1NC(=O)CC2/C=C/CCSSCC(NC1=O)C(=O)N[C@@H](Cc1cccc3ccccc13)C(=O)NCC(=O)O2 (some centres unmarked) [FK-A12]
IC50 (PI3K (p110α/p85α); [5]): 7.2 µM

CC(C)[C@H]1NC(=O)CC2/C=C/CCSSCC(NC1=O)C(=O)N[C@H](Cc1ccc3ccccc3c1)C(=O)NCC(=O)O2 (some centres unmarked) [FK-A13]
IC50 (PI3K (p110α/p85α); [5]): 8.5 µM

CC(C)[C@H]1NC(=O)CC2/C=C/CCSSCC(NC1=O)C(=O)N[C@H](Cc1ccc(F)cc1)C(=O)NCC(=O)O2 (some centres unmarked) [FK-A17]
IC50 (PI3K (p110α/p85α); [5]): 20.2 µM

O=c1cc(N2CCOCC2)oc2c(-c3ccccc3)cccc12 [LY294002]
A600 [1]: 0.482
cell cycle arrest (HCT116 cells [3]): induced arrest of G0/G1 phase
expression level of phosphorylated AKT (Ser-473, Thr-308) over time ([4]; 10 μM): lowered the expression level of phosphorylated AKT (Ser-473, Thr-308)

O=C(CCCCCCC(=O)Nc1ccccc1)NO [SAHA, suberoyl anilide hydroxamic acid]
cell cycle arrest (HCT116 cells [3]): induced arrest of G2/M phase

CC(C)C1NC(=O)C2CSSCC/C=C/C(CC(=O)N[C@H](C)C(=O)N2)OC(=O)C[C@@H]1O (some centres unmarked) [SP-1, spiruchostatin A]
A600 [1]: 0.412
IC50 (HDAC1): 0.0033 µM
IC50 (HDAC6): 1.6 µM

CC[C@H](C)C1NC(=O)C2CSSCC/C=C/C(CC(=O)N[C@H](C)C(=O)N2)OC(=O)C[C@@H]1O (some centres unmarked) [SP-2, spiruchastatin B]
IC50 (HDAC1): 0.0022 µM
IC50 (HDAC6): 1.4 µM

CC[C@@H](C)C1NC(=O)C2CSSCC/C=C/C(CC(=O)N[C@H](C)C(=O)N2)OC(=O)C[C@@H]1O (stereo partly drawn) [SP-3, 5″-epi-spiruchostatin B]
A600 [1]: 0.464
IC50 (HDAC1): 0.0024 µM
IC50 (HDAC6): 3.9 µM

CC(C)[C@H]1NC(=O)C2CSSCC/C=C/C(CC(=O)N[C@H](C(C)C)C(=O)N2)OC(=O)C[C@@H]1O (some centres unmarked) [SP-5, spiruchostatin D]
PI3K activity inhibitory rate (PI3K (p110α/p85α)): higher inhibition rate than FK228
